Assay results from patent US9629834B2, “Medicinal composition for inhibiting formation and/or enlargement of cerebral aneurysm or shrinking same” (KYOTO UNIVERSITY, priority 2013, dated 2017).

Key:
MCP-1 = assay: Suppression of expression of MCP-1 at cerebral artery bifurcation (immunostaining); format: in vivo, SD rat; details: vs group without drug, FIG. 4
[1] = Influences on blood pressure and heart rate of rats (tail-cuff method); format: in vivo, SD rat; details: 0.03 or 0.1 mg/kg oral once a day, Day 1 to Day 27; measured Day 28, without anesthesia; FIG. 7A and FIG. 7B
Description: Immediately before dissecting rats 28 days after surgery (Day 28) as described in the section (1) of Example 1, blood pressure and heart rate of each of rats were measured noninvasively without anesthesia by a tail-cuff method. The measurement was conducted by using a noninvasive blood pressure measuring device for rats and mice BP-98A (Softron). The measurement was conducted three times per rat, and the mean value was used for calculating the mean value of all rats in each of the groups. No influence of the administration of Compound 1 on any blood pressure (SBP: systolic blood pressure, MBP: mean blood pressure, DBP: diastolic blood pressure) or heart rate was observed.

[2] = test system: Human carotid artery endothelial cells HCtAEC; assay: Permeability of endothelial cells (Transwell, FITC-dextran); format: cell-based; details: 0.1 nM, 1 nM, 10 nM, or 100 nM; 60 minutes pre-culture; fluorescence after 5, 60 and 210 minutes; FIG. 14
Description: Human carotid artery endothelial cells […] (Cell Applications) were seeded in the upper compartment of Transwell (diameter: 6.5 mm, pore size: 0.4 μm, collagen-Coated: Corning) so that the cell density was 1×10^5 cells/well, and the cells were cultured overnight in MesoEndo Growth Medium (Cell Applications) under a 5% CO2 atmosphere at 37° C. The medium was replaced with Endothelial Cell Serum-Free Defined Medium (Cell Applications), and the cells were further cultured overnight under the CO2 atmosphere at 37° C. Then, Compound 1 was added to the upper compartment and the lower compartment of Transwell so that the final concentration was 0 nM, 0.1 nM, 1 nM, 10 nM, or 100 nM, and the cells were cultured continuously. The well to which Compound 1 was not added was defined as a control. After culturing for 60 minutes, 250 μg/mL of fluorescein isothiocyanate (FITC)-dextran (2,000 kDa: Sigma-Aldrich) was added to the upper compartment of Transwell, and the amount of FITC-dextran which permeated into the lower compartment was determined by measuring the fluorescence intensity of the medium in the lower compartment after 5 minutes, 60 minutes, and 210 minutes.

## C[C@H](Oc1ccc(-c2nc(-c3ccc4[nH]cnc4c3)no2)cc1C(F)(F)F)C(F)(F)F.Cl [Compound 1, 5-{5-[3-(trifluoromethyl)-4-{[(2S)-1,1,1-trifluoropropan-2-yl]oxy}phenyl]-1,2,4-oxadiazol-3-yl}-1H-benzimidazole hydrochloride]
MCP-1; 0.03 mg/kg oral once a day
  expression of MCP-1 in cerebral aneurysm walls: suppressed as compared to the group without being administered a drug
MCP-1; 0.1 mg/kg oral once a day
  expression of MCP-1 in cerebral aneurysm walls: suppressed as compared to the group without being administered a drug
[1]
  influence on blood pressure (SBP, MBP, DBP): No influence
  influence on heart rate: No influence
[2]
  amount of FITC-dextran which permeated into the lower compartment (permeability of endothelial cells): decreased the amount of FITC-dextran which permeated into the lower compartment in a concentration-dependent manner
